Laboratory results reported in patent US20200297820A1, “STIMULATION OF HUMAN MEIBOMIAN GLAND FUNCTION” (The Schepens Eye Research Institute, Inc., priority 2013, published 2020).

What was measured:
[1] = system: immortalized human meibomian gland epithelial cells; experiment: LipidTOX green neutral lipid staining (lipid accumulation); format: cell-based; conditions: 10 nM each hormone, up to 13 days
[2] = system: human meibomian gland epithelial cells; experiment: Immunoblot of signaling pathways (Akt, FoxO1, ERK, JAK2/STAT5); format: cell-based
Experimental: The disclosure turns now to sodium dodecyl sulfate-polyacrylamide gel, electrophoresis, and immunoblots. Cells were directly lysed in Laemmli buffer supplemented with 1% protease inhibitor cocktail (Sigma-Aldrich) and 5% β-mercaptoethanol (Sigma-Aldrich). Lysates were heated at 95° C. for 10 minutes, separated by sodium dodecyl sulfate-polyacrylamide gel electrophoresis on 10% Tris-glycine precast gels, and transferred to polyvinylidene difluoride membranes. Rabbit or mouse antibodies used were specific for phosphorylated Akt (p-Akt), pan-Akt, p-FoxO1, FoxO1, p-JAK2, JAK2, and β-actin; for p-ERK, ERK-2, STAT5, and the precursor form of SREBP-1; and for p-STAT5. Membranes were blocked with 5% bovine serum albumin in Tris-buffered saline containing 0.01% polysorbate 20. All primary antibodies were diluted to 1:1000 in blocking buffer except for p-Akt (1:4000), p-ERK (1:2000), ERK-2 (1:4000), SREBP-1 (1:200), and β-actin (1:10 000). Horseradish peroxidase-conjugated secondary antibodies were goat anti-rabbit IgG and Fc-specific goat anti-mouse IgG diluted to 1:5000. Proteins were visualized with enhanced chemiluminescent substrate or with ultrasensitive chemiluminescent substrate. Densitometry was performed with image-processing software.
To determine whether IGF-1 promotes the phosphorylation of Akt in human meibomian gland epithelial cells, cells were cultured under proliferating or differentiating conditions and then exposed to IGF-1 for 15 minutes.
FIGS. 9a, 9b, and 9c illustrate the effects of insulin-like growth factor 1 (IGF-1) and growth hormone (GH) on signaling pathways in human meibomian gland epithelial cells. Cells were cultured in keratinocyte serum-free medium containing epidermal growth factor (EGF) and bovine pituitary extract (BPE) for 2 days and then keratinocyte serum-free medium alone overnight or were cultured in 10% fetal bovine serum (FBS) medium for 5 to 7 days and in 1% FBS medium overnight. Cells were then incubated with vehicle or a 10 μM concentration of LY294002 for 2 hours, followed by IGF-1 or GH treatment for 15 minutes. Cell lysates were evaluated on immunoblotting. […] These experiments were repeated at least 3 times with similar results.
To assess whether GH activates Akt, FoxO1, ERK-2, or its classic (i.e., JAK2 and STAT5) signaling pathways in human meibomian gland epithelial cells, cells were cultured in proliferating or differentiating media, and were exposed to a 10 nM concentration of GH for 15 minutes, and processed for immunoblot analyses. […]

[3] = topical 0.5, 1.0 and 1.5% AZM eye drops, for 24 hours; cited from earlier work
[4] = system: human meibomian gland epithelial cells; experiment: High-performance thin-layer chromatography of total cellular lipid extracts; format: cell-based; conditions: for accumulation of CE / accumulation of TG: 10 nM IGF-1 or 10 μg/mL AZM
From the text: Cell numbers were enumerated with a hemocytometer. Cellular lipid and lysosome accumulation were examined by staining cells with: Filipin III (a fluorometric probe for identifying unesterified cholesterol), LipidTOX green neutral lipid stain, and LysoTracker® Red DND-99 (a fluorescent technique designed for labeling acidic organelles such as lysosomes). Lysosomal lamellar bodies were identified by transmission electron microscopy. In brief, after culture and treatment on 24 mm polycarbonate membrane transwell inserts (0.4 μm pore size), cells were fixed in a solution of 2% formaldehyde+2.5% glutaraldehyde, in 0.08 M sodium cacodylate buffer, pH 7.4, post-fixed with 2% osmium tetroxide in 0.1 M sodium cacodylate buffer, and stained en bloc with 2% aqueousuranyl acetate. Samples were then dehydrated in graded ethyl alcohol solutions and embedded by using the tEPON-812 epoxy resin kit. Cross sections ([…]) were stained with 1% toluidine blue in 1% sodium tetraborate solution. Ultra-thin sections (60-90 nm) were imaged with a transmission electron microscope interfaced with a digital CCD camera. For biochemical assessments, cellular lipids were extracted with chloroform and methanol from samples with the same amount of protein. Lipids were then evaluated with high-performance thin-layer chromatography. With regard to the staining results, three Filipin, five LipidTox and four LysoTracker studies were conducted, and each experiment was performed in duplicate. Four random pictures were taken of each group, and four random areas were selected for the measurement of fluorescent intensities. The HPTLC experiments were performed in duplicate more than three times. Image data were quantified with ImageJ (http://rsbweb.nib.gov/ij/index.html). Electron microscopic analyses were performed in triplicate.
FIG. 8a illustrates the effect of AZM on the expression of cholesterol ester (CE), free cholesterol (FC), phosphatidylethanolamine (PE), phosphatidylcholine (PC), and phosphatidylinositol (PI) inhuman meibomian gland epithelial cells. Cells were treated with vehicle or 10 μg/ml AZM for 5 days before performing chromatographic analyses of total lipid extracts. FIG. 8b illustrates band intensity of the cells shown in FIG. 8a measured using ImageJ. Control band intensity was set to 1, and data (mean±SE) are reported as fold-change compared to control values. *p<0.05,**p<0.005, versus control. Band intensity analysis includes data from at least three independent experiments.
FIGS. 14a and 14b illustrate the effect of IGF-1, AZM, and IFG-1+AZM combination on the accumulation of CE, TG, FC, PE, and PC. […] FIG. 14b quantifies band intensity using ImageJ. The control band intensity was set to 1, and data (mean 6 SE) were reported as fold-change compared with control values. […] Other bands are unidentified lipids. Band intensity analysis included data from three independent experiments.

[5] = system: immortalized human meibomian gland epithelial cells; experiment: Cellular morphology (terminal maturation, holocrine-like secretion); format: cell-based; conditions: azithromycin 10 μg/ml
Experimental: As an example of these experiments, immortalized human meibomian gland epithelial cells were cultured in the presence or absence of 10% fetal bovine serum. Cells were treated with an ethanol vehicle or azithromycin (10 μg/ml; Santa Cruz Biotechnology) for varying time periods. Cellular morphological appearance was recorded, cells were counted with a hemocytometer, and lipid accumulation was assessed by staining the cells with LipidTOX green neutral lipid stain (Invitrogen, Grand Island, N.Y.), according to reported methods. Staining fluorescent intensities were quantified by using ImageJ (http://rsbweb.nih.gov/ij/index.html). Statistical analyses were performed with Student's t-test (two-tailed, unpaired). Immortalized human meibomian gland epithelial cells ([…]; passages 20-22) were cultured in the presence or absence of 10% fetal bovine serum. Cells were treated with the ethanol vehicle or azithromycin (10 μg/mL) for varying periods. Cellular morphological appearance was recorded, cells were counted with a hemocytometer, and lipid accumulation was assessed by staining cells with LipidTOX green neutral lipid stain (Invitrogen Corp). Staining fluorescent intensities were quantified using ImageJ software (http://rsbweb.nih.gov/ij/index.html). Statistical analyses were performed with t test (2-tailed, unpaired).

GH: human growth hormone
accumulation of lipid [1]: significant accumulation of lipid | phosphorylation of extracellular-signal-regulated kinases (ERKs) [2]: increase the phosphorylation | activation of Akt, FoxO1, ERK-2, JAK2 and STAT5 ([2]; 10 nM, 15 minutes, proliferating or differentiating media): did not show that GH elicited effects | activation of Akt, FoxO1, ERK-2, JAK2 and STAT5 ([2]; doses of 0.05 to 50 nM): negative results

CC[C@H]1OC(=O)[C@H](C)[C@@H](O[C@H]2C[C@@](C)(OC)[C@@H](O)[C@H](C)O2)[C@H](C)[C@@H](O[C@@H]2O[C@H](C)C[C@H](N(C)C)[C@H]2O)[C@](C)(O)C[C@@H](C)CN(C)[C@H](C)[C@@H](O)[C@]1(C)O [Azithromycin]
tear concentration [3]: above 7 μg/ml | accumulation of CE ([4]; 7 days): significant effect | accumulation of TG ([4]; 7 days): significant effect | accumulation of PE ([4]; 10 μg/mL AZM, 7 days): significant effect | accumulation of esterified cholesterol (CE) ([4]; 10 μg/ml, 5 days): significantly promotes an accumulation | accumulation of free cholesterol (FC) ([4]; 10 μg/ml, 5 days): significantly promotes an accumulation | accumulation of phosphatidylcholine (PC) ([4]; 10 μg/ml, 5 days): significantly promotes an accumulation | accumulation of phosphatidylethanolamine (PE) ([4]; 10 μg/ml, 5 days): significantly promotes an accumulation | accumulation of phosphatidylinositol (PI) ([4]; 10 μg/ml, 5 days): significantly promotes an accumulation | terminal maturation and holocrine-like secretion [5]: promote terminal maturation

IGF-1: recombinant human insulin-like growth factor 1
accumulation of lipid [1]: significant accumulation of lipid | accumulation of CE ([4]; 7 days): significant effect | accumulation of TG ([4]; 7 days): significant effect | phosphorylation of extracellular-signal-regulated kinases (ERKs) [2]: increase the phosphorylation | phosphorylation of ERK ([2]; 10 nM, 15 minutes, 2 studies enhanced, 3 no influence): inconsistent effect | phosphorylation of FoxO1 ([2]; 10 nM, 15 minutes, differentiating cells): increased phosphorylation of FoxO1 | culture condition in which Akt and FoxO1 phosphorylation occurred ([2]; 10 nM, 15 minutes, proliferating or differentiating conditions): differentiating but not proliferating cells | concentration at which p-Akt effect became maximal ([2]; IGF-1 for 15 minutes): 10 nM | concentration at which p-Akt effect could be detected ([2]; IGF-1 for 15 minutes): 1 nM | expression of p-Akt ([2]; IGF-1 for 15 minutes, differentiating cells): dose-dependent expression of p-Akt | phosphorylation of Akt ([2]; within minutes): increases the phosphorylation of Akt
